From patent US20050244897A1, “Endothelial cells as diagnostic instrument in cardiovascular diseases” (priority 2002, published 2005)

Legend:
[1] = system: LDL-cholesterol; experiment: Serum lipid fractions (LDL-cholesterol) in patients with stable angina before and after treatment; type: in vivo, human
Procedure: (§1) In addition, 8 patients with stable angina were prospectively treated with atorvastatin (20 mg/day, four weeks).
In all patients serum was also collected at the time of examination for a determination of the concentrations of CRP and hsCRP (turbidimetric assay, Boehringer Mannheim and Ultrasensitive N Latex CRP Monotest, Behring, respectively) as well as serum lipid-fractions (Boehringer Mannheim).
Thus, it was prospectively examined whether a short-term treatment with atorvastatin (20 mg/day, four weeks) reduces the EC-apoptosis in patients with stable CAD.

[2] = system: circulating apoptotic ECs; experiment: Flow cytometry (FACS) of circulating apoptotic ECs in peripheral blood of patients with stable angina treated prospectively; type: in vivo, human
Procedure: as §1
The lysis of erythrocytes in 10 ml peripheral venous heparin blood was performed with the aid of a commercially available solution for lysis (Becton Dickinson, BD). The circulating ECs were then examined by means of 4-channel-FACS (Fluorescence Activated Cell Sorting)-analysis, using a suitably modified protocol according to the method of Mancuso et al. and Monestiroli et al. (Mancuso P., Burlini A., Pruneri G., Goldhirsch A., Martinelli G., Bertolini F. Blood. 2001; 97: 3658-3661; Monestiroli S., Mancuso P., Burlini A., Pruneri G., Dell'Agnola C., Gobbi A., Martinelli G., Bertolini F. Cancer Res. 2001; 61: 4341-4344) (FIG. 1). First, in the representation of the forward/sideward-scatter a regional window was defined, in order to exclude platelets and debris from the further analyses. Amongst the remaining cells, the number of the CD45^+-signals that were identified with a direct perCP-conjugated monoclonal antibody against human CD45 (BD) was quantified, in order to normalise each measured cellular population in view of the total number of the leukocytes in relation to the number of WBCs. In order to specifically detect mature ECs, only CD45^−-cells were analysed further by double staining with antibodies against the EC-specific epitope CD146 (MeI-CAM, MUC18, S-Endo-1; Shih I. M. J Pathol. 1999; 189: 4-11) (monoclonal mouse-antibody, directly FITC-conjugated; Chemicon) and against von Willebrandt-factor (vWF) (rabbit, Oncogene), followed by a PE-conjugated anti-rabbit secondary antibody. Alternatively, human KDR was detected with an anti-KDR-antibody of the mouse (Sigma), followed by a PE-conjugated anti-mouse secondary antibody in addition to vWF. CD45^−/CD146^+/vWF^+ or CD45^−/KDR^+/vWF^+-cells were defined as mature ECs. […]

`CC(C)c1c(C(=O)Nc2ccccc2)c(-c2ccccc2)c(-c2ccc(F)cc2)n1CC[C@@H](O)C[C@@H](O)CC(=O)O` [atorvastatin] was tested, and the “LDL-cholesterol (mg/dl) post” value ([1]; n=8 patients with stable angina, after 20 mg/day for four weeks, pre value 155 ± 16, mean ± SEM) was 86 ± 13 mg/dL, the “concentration of LDL-cholesterol” value ([1]; patients with stable CAD, 20 mg/day, four weeks, p<0.02) was “significantly reduced” and the EC-apoptosis ([2]; patients with CAD, four week treatment period) was “profoundly reduces”. For the same compound, the “number of circulating apoptotic ECs” value ([2]; patients with stable CAD (SA), n=8, 20 mg/day, four weeks, FIG. 3A) was “significantly reduced” and the “proportion of apoptotic ECs of the total number of circulating ECs” value ([2]; patients with stable CAD (SA), n=8, 20 mg/day, four weeks, FIG. 3B) was “significantly reduced”.
